Consider 4 cell lines from the supplement of paper PMC10307832.

Common to all, as to experiment: relative viability (nuclei count vs DMSO), 5 days (fraction); higher = more cells survive
Compound in assay [1]: CC1=CC(=NN1)NC2=CC(=NC(=N2)/C=C/C3=CC=CC=C3)N4CCN(CC4)C + CC(C)C[C@H](NC(=O)[C@H](Cc1ccccc1)NC(=O)c1cnccn1)B(O)O [Bortezomib] (partner 0.002 µM)
In short, it runs like this: (§1)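 Lung cancer cell lines were pin-tool dosed in 1536-well plates on the day after seeding, with either a lone drug or a fixed anchor-drug dose plus five library-drug doses (not always all listed) in √10 steps. Nuclei were counted on 4× images after 5 days. Relative viability is the ratio of treated-well to vehicle-well nuclei counts, with each value a median of duplicate plates.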

Compound in the assay “Bortezomib + Palbociclib”: CC(C)C[C@H](NC(=O)[C@H](Cc1ccccc1)NC(=O)c1cnccn1)B(O)O [Bortezomib] + CC(=O)c1c(C)c2cnc(Nc3ccc(N4CCNCC4)cn3)nc2n(C2CCCC2)c1=O [Palbociclib] (partner 0.5 µM)
Put shortly:
as §1

Compound in the assay “Obatoclax + Decitabine”: COC1=CC(c2cc3ccccc3[nH]2)=N/C1=C\c1[nH]c(C)cc1C [Obatoclax] + Nc1ncn([C@H]2C[C@H](O)[C@@H](CO)O2)c(=O)n1 [Decitabine] (partner 2 µM)
Put shortly:
as §1

Compound in the assay “Bortezomib + AZD7762”: CC(C)C[C@H](NC(=O)[C@H](Cc1ccccc1)NC(=O)c1cnccn1)B(O)O [Bortezomib] + NC(=O)Nc1cc(-c2cccc(F)c2)sc1C(=O)N[C@H]1CCCNC1 [AZD7762] (partner 0.2 µM)
In short, it runs like this:
as §1

On to NCI-H3122, for which the relative viability in assay [1] (first compound 0.08 µM) worked out at 0.92; in assay [1] (first compound 0.253 µM), 0.924; in assay [1] (first compound 0.8 µM), 1.07; in assay [1] (first compound 2.53 µM), 1.02; in assay [1] (first compound 8 µM) it was 0.542; in the assay with Bortezomib + Palbociclib (first compound 0.0002 µM), 0.197. Also, the relative viability in the assay with Bortezomib + Palbociclib (first compound 0.000632 µM) stood at 0.204; with Bortezomib + Palbociclib (first compound 0.002 µM), 0.205; in the assay with Bortezomib + Palbociclib (first compound 0.006325 µM) it was 0.135; with Bortezomib + Palbociclib (first compound 0.02 µM) it was 0.102; with Obatoclax + Decitabine (first compound 0.01 µM) it was 0.434; with Obatoclax + Decitabine (first compound 0.03162 µM), 0.489. Further, the relative viability stood at 0.39 with Obatoclax + Decitabine (first compound 0.1 µM); 0.435 with Obatoclax + Decitabine (first compound 0.3162 µM); 0.453 in the assay with Obatoclax + Decitabine (first compound 1 µM); 0.976 in the assay with Bortezomib + AZD7762 (first compound 0.0002 µM); 1.09 with Bortezomib + AZD7762 (first compound 0.000632 µM); 1.03 in the assay with Bortezomib + AZD7762 (first compound 0.002 µM). The figures for the relative viability in the assay with Bortezomib + AZD7762 (first compound 0.006325 µM) and with Bortezomib + AZD7762 (first compound 0.02 µM) were 0.784 and 0.11, respectively.
For the cell line PC-3 [JPC-3], the relative viability turned out to be 0.836 in assay [1] (first compound 0.08 µM); 0.968 in assay [1] (first compound 0.253 µM); 0.838 in assay [1] (first compound 0.8 µM); 0.853 in assay [1] (first compound 2.53 µM); 0.761 in assay [1] (first compound 8 µM); 0.521 in the assay with Bortezomib + Palbociclib (first compound 0.0002 µM). Further, the relative viability is 0.583 with Bortezomib + Palbociclib (first compound 0.000632 µM); 0.413 with Bortezomib + Palbociclib (first compound 0.002 µM); 0.285 in the assay with Bortezomib + Palbociclib (first compound 0.006325 µM); 0.227 with Bortezomib + Palbociclib (first compound 0.02 µM); 0.826 with Obatoclax + Decitabine (first compound 0.01 µM); 0.799 with Obatoclax + Decitabine (first compound 0.03162 µM). Also, the relative viability with Obatoclax + Decitabine (first compound 0.1 µM) stood at 0.776; with Obatoclax + Decitabine (first compound 0.3162 µM), 0.732; with Obatoclax + Decitabine (first compound 1 µM), 0.501; in the assay with Bortezomib + AZD7762 (first compound 0.0002 µM) it was 0.773; in the assay with Bortezomib + AZD7762 (first compound 0.000632 µM), 0.829; with Bortezomib + AZD7762 (first compound 0.002 µM) it was 0.531. Further, the relative viability with Bortezomib + AZD7762 (first compound 0.006325 µM) amounted to 0.225; with Bortezomib + AZD7762 (first compound 0.02 µM), 0.199.
Turning to PC-14, the relative viability amounted to 0.748 in assay [1] (first compound 0.08 µM); 0.947 in assay [1] (first compound 0.253 µM); 0.839 in assay [1] (first compound 0.8 µM); 0.488 in assay [1] (first compound 2.53 µM); 0.0557 in assay [1] (first compound 8 µM); 0.53 with Bortezomib + Palbociclib (first compound 0.0002 µM). Moreover, the relative viability was determined as 0.506 in the assay with Bortezomib + Palbociclib (first compound 0.000632 µM); 0.412 with Bortezomib + Palbociclib (first compound 0.002 µM); 0.045 with Bortezomib + Palbociclib (first compound 0.006325 µM); 0.052 with Bortezomib + Palbociclib (first compound 0.02 µM); 0.209 with Obatoclax + Decitabine (first compound 0.01 µM); 0.17 in the assay with Obatoclax + Decitabine (first compound 0.03162 µM). Further, the relative viability with Obatoclax + Decitabine (first compound 0.1 µM) was found to be 0.147; with Obatoclax + Decitabine (first compound 0.3162 µM), 0.0898; with Obatoclax + Decitabine (first compound 1 µM), 0.0842; with Bortezomib + AZD7762 (first compound 0.0002 µM), 0.279; with Bortezomib + AZD7762 (first compound 0.000632 µM), 0.336; in the assay with Bortezomib + AZD7762 (first compound 0.002 µM), 0.364. The relative viability worked out at 0.123 with Bortezomib + AZD7762 (first compound 0.006325 µM) and 0.0742 with Bortezomib + AZD7762 (first compound 0.02 µM).
Regarding RERF-LC-KJ, the relative viability turned out to be 1.09 in assay [1] (first compound 0.08 µM); 1.16 in assay [1] (first compound 0.253 µM); 1.12 in assay [1] (first compound 0.8 µM); 0.748 in assay [1] (first compound 2.53 µM); 0.381 in assay [1] (first compound 8 µM); 1.18 in the assay with Bortezomib + Palbociclib (first compound 0.0002 µM). Besides, the relative viability with Bortezomib + Palbociclib (first compound 0.000632 µM) worked out at 1.03; with Bortezomib + Palbociclib (first compound 0.002 µM), 1.05; with Bortezomib + Palbociclib (first compound 0.006325 µM), 0.224; with Bortezomib + Palbociclib (first compound 0.02 µM), 0.19; with Obatoclax + Decitabine (first compound 0.01 µM), 0.693; with Obatoclax + Decitabine (first compound 0.03162 µM), 0.632. Besides, the relative viability with Obatoclax + Decitabine (first compound 0.1 µM) came to 0.643; with Obatoclax + Decitabine (first compound 0.3162 µM), 0.613; with Obatoclax + Decitabine (first compound 1 µM), 0.291; with Bortezomib + AZD7762 (first compound 0.0002 µM), 0.819; with Bortezomib + AZD7762 (first compound 0.000632 µM), 1.12; with Bortezomib + AZD7762 (first compound 0.002 µM), 1.12. For the same cell line, the relative viability with Bortezomib + AZD7762 (first compound 0.006325 µM) is 0.966; in the assay with Bortezomib + AZD7762 (first compound 0.02 µM), 0.409.
